Columns and labels:
Assay type in all cases: cell-based, human
[1] = tested on: phosphorylation of Akt and ERK in RD cells; test: Immunoblotting of feedback activation of Akt and ERK; details: up to 24 h, B591 10 μM
Protocol: Fig. 2 B591 inhibits PI3K/Akt pathway in multiple cancer cell lines. a Representative images of Akt1 redistribution in IGF-1-treated cells in the absence or presence of B591. Scale bar represents 10 μm. Arrows indicate IGF-1-mediated membrane translocation detected by the image analysis algorithm. b Inhibition of mTORC1 and mTORC2 signaling in multiple cancer cell lines, exposed for 5 h to increasing concentrations of B591. c HepG2 cells were treated with DMSO or 20 μM of B591 for 5 h. Immunofluorescence (red) intensity reflects eIF4E subcellular distribution. Cells were visualized with high content reader. Representative images are shown, and scale bar represents 50 μm. d Nuclear-to-cytoplasmic ratio of eIF4E in five cancer cell lines was determined via high content reader. e The phosphorylation of AKT and ERK was determined by immunoblotting in RD cells in the presence of 10 μM of B591 after indicated time of exposure. f Inhibition of the phosphorylation of AKT and ERK in RD cells treated with B591, PI-103 or Rapamycin for 24 h was determined by immunoblotting
Despite a significant efficacy in preclinical models, the clinical tumor response to mTORC1 inhibitors, such as rapalogs, is modest. […]

RD cells = test: Apoptosis assay (Annexin V-FITC); details: 48 h
Protocol: Cells were seeded in six-well plates at a density of 2×10^5 cells per well and kept overnight at 37℃ humidified incubator with 5% CO2. The next day, cells were treated with B591 for 48 h. Cells were then collected and stained using Annexin V-FITC Apoptosis Detection Kit I (BD Pharmingen™, Franklin Lakes, NJ, USA) according to manufacturer’s instruction. In brief, cells were washed with cold PBS twice and with binding buffer once, about 1×10^5 cells were resuspended in 100 μl Annexin-V binding buffer, followed by incubation with FITC conjugated Annexin V and propidium iodide (PI) for 15 min at room temperature in the dark. The apoptosis assay was performed by using BD FACSCalibur flow cytometry.
Supplementary Fig. S8. B591 induces G0/G1 cell cycle arrest and apoptosis in tumor cells. […] The cells were harvested and analyzed for cell cycle profile. […] The cells were harvested and processed for apoptosis assay using the Annexin V-FITC Apoptosis Detection Kit. (D) Quantification of flow cytometry analysis of apoptosis. Results were presented as mean ± SD (n = 3). ^***p <0.001, difference versus DMSO-treated control group.

[2] = tested on: MDA-MB-231 and SUM-159PT monolayer and mammosphere cells; test: Apoptosis of monolayer versus mammosphere cells (PE-Annexin V/7-AAD); details: 48 h
Protocol: Cells were treated with indicated agents for 48 h, and cells were harvested and processed for apoptosis assay using the PE-Annexin V/7-AAD Apoptosis Detection Kit. d Representative flow cytometry plots of apoptosis inducing activity of B591 (10 μM) and paclitaxel (10 nM) on monolayer and mammosphere MDA-MB-231 cells. e B591 preferentially targeted CD44^high/CD24^low cells. Cells were treated with B591 or paclitaxel for 2 days. Following a 4-day recovery period, cells were co-stained with CD44 and CD24 antibodies and subjected to FACS analysis. Representative flow cytometry plots show the effect of B591 on CD44^high/CD24^low population in MDA-MB-231 cells in vitro. f B591 decreased mammosphere forming efficiency. Primary MDA-MB-231 mammospheres were treated with B591 or paclitaxel for 48 h. Results of the secondary mammosphere-formation assay are shown. Scale bar represents 40 μm. g B591 decreased the expression of CSC markers in MDA-MB-231 cells. Cells were treated with B591 or paclitaxel for 2 days. […] They label a gated population in plots with axes CD44 and CD24. / Panel E: DMSO is the vehicle control. Its printed value is included all the same.
Supplementary Fig. S10. B591 preferentially targets CSCs. […] Following a 4-day recovery period, the expression of CSC markers was analyzed with western blot analysis.

SMILES: Cc1cc2c(cc1C)[n+](Cc1ccccc1Br)cn2Cc1ccc2c(c1)CCO2.[Br-] [B591, 3-(2-bromobenzyl)-1-((2,3-dihydrobenzofuran-5-yl)methyl) -5,6-dimethyl-1H-benzo[d]imidazol-3-ium bromide]
- Phosphorylation of Akt and ERK [1]: effectively suppressed the phosphorylation of Akt and ERK over the whole time course of 24 h
- Apoptosis induction (RD cells): significant apoptosis inducing effect
- Apoptosis induction, mammosphere versus monolayer populations [2]: preferentially induced the apoptosis of mammosphere populations
